In patent US20120329770A1, “CEPHALOSPORIN DERIVATIVES USEFUL AS BETA-LACTAMASE INHIBITORS AND COMPOSITIONS AND METHODS OF USE THEREOF” (priority 2010, published 2012):

What was measured:
[1] = system: Stenotrophomonas maltophilia IS 5568; experiment: Antimicrobial MIC / checkerboard assay for synergy with meropenem; type: cell-based; conditions: S. maltophilia IS 5568; meropenem + compound, checkerboard
Procedure: (§1) Assays were conducted as described by Weigand et al. (Weigand, I.; Hilpert, K.; Hancock, R. E. Nat. Protocols 2008, 3, 163-175).
(§2) To determine the lowest concentration of an antimicrobial agent that inhibits visible growth of a microorganism, 50 μL of compound solution and 50 μL of buffer solution were added to each well at the desired concentration(s) (i.e. 4×the final concentration) as well as a zero control. Stock solutions of 10 mg/mL, were prepared in DMSO, followed by two-fold serial dilutions in Müeller-Hinton media and 100 μL of bacteria (ca. 5×10^5 CFU/mL) was added to each well. Plate counts were performed on the control wells to determine bacterial innoculum level. The innoculum was prepared by taking an overnight culture in Müeller-Hinton media and diluting to McFarland's 0.5 standard, and diluting a further 1:100 prior to addition to the plate. Lanes with no bacteria added served as sterility controls and lanes with no compound served as growth controls. Organisms were allowed to grow overnight at 37° C. in a humid environment and the plates were monitored at 625 nm for growth. MIC was determined to be the last well with no growth.
(§3) In the checkerboard assay one compound is serially diluted along the ordinate, and the second compound is serially diluted along the abscissa. […] A 50 μL aliquot of the compound was added to each well at the desired concentration(s) (i.e. 4×the final concentration) as well as a zero control. Stock solutions of 10 mg/mL of compound were prepared in DMSO, followed by two-fold serial dilutions in Müeller-Hinton media. Finally, 100 μL of bacteria (ca. 5×10^5 CFU/mL) was added to each well. Plate counts were performed on the control wells. Innoculum was prepared by taking an overnight culture in Müeller-Hinton media and diluting to McFarland's 0.5 standard, and diluting a further 1:100 prior to addition to the plate. […] The final volume in each well was 200 μL. The plates were allowed to grow overnight at 37° C. in a humid environment and were monitored at 625 nm for growth. […] Sterility controls and growth controls were included on each plate. The fractional inhibitory concentration (FIC) was determined as follows:
(§4) Results were interpreted in the following way: Synergistic if FIC≦0.5; Additive if […]; Indifferent if […]; Antagonistic if FIC≧2.0.

[2] = system: Pseudomonas aeruginosa IS 5563; experiment: as above; type: cell-based; conditions: P. aeruginosa IS 5563; meropenem + compound, checkerboard
Procedure: as §1, §2, §3, §4

IMP-1 [3] = molecular target: T1, IMP-1 (Serratia marcescens, UniProt P52699); experiment: Sensitivity of IMP-1 to proteolysis by trypsin after incubation with inhibitor; type: biochemical; conditions: incubation of IMP-1 with inhibitor
T1 construct: made in house; host or cells: Escherichia coli BL21(DE3) carrying pCIP4

[4] = system: Pseudomonas aeruginosa C-10; experiment: Antimicrobial MIC / checkerboard assay for synergy with meropenem; type: cell-based; conditions: P. aeruginosa C-10; meropenem + compound, checkerboard
Procedure: as §1, §2
(§5) In the checkerboard assay one compound is serially diluted along the ordinate, and the second compound is serially diluted along the abscissa. […] A 50 μL aliquot of the compound was added to each well at the desired concentration(s) (i.e. 4×the final concentration) as well as a zero control. Stock solutions of 10 mg/mL of compound were prepared in DMSO, followed by two-fold serial dilutions in Müeller-Hinton media. Finally, 100 μL of bacteria (ca. 5×10^5 CFU/mL) was added to each well. Plate counts were performed on the control wells. Innoculum was prepared by taking an overnight culture in Müeller-Hinton media and diluting to McFarland's 0.5 standard, and diluting a further 1:100 prior to addition to the plate. Lanes with no bacteria added served as sterility controls and lanes with no meropenem or compound served as growth controls. The final volume in each well was 200 μL. The plates were allowed to grow overnight at 37° C. in a humid environment and were monitored at 625 nm for growth. […] Sterility controls and growth controls were included on each plate. The fractional inhibitory concentration (FIC) was determined as follows:
as §4

[5] = system: Stenotrophomonas maltophilia IS 6069; experiment: as above; type: cell-based; conditions: S. maltophilia IS 6069, meropenem + compound
Procedure: as §1, §2, §5, §4

[6] = system: Chryseobacterium meningosepticum IS 5824; experiment: as above; type: cell-based; conditions: C. meningosepticum IS 5824; meropenem + compound, checkerboard
Procedure: as §1, §2, §5, §4

[7] = system: Stenotrophomonas maltophilia IS 6081; experiment: as above; type: cell-based; conditions: S. maltophilia IS 6081, meropenem + compound
Procedure: as §1, §2, §5, §4

[8] = system: Pseudomonas aeruginosa IS 6225; experiment: as above; type: cell-based; conditions: P. aeruginosa IS 6225, meropenem + compound
Procedure: as §1, §2, §5, §4

β-lactamases = experiment: β-Lactamase inhibition, result in words; type: biochemical
Source text: In preferred embodiments, the compounds incorporate a good leaving group at the C3′ carbon that can be readily expelled as an anion. In some embodiments, the leaving group is a C3′-benzoylthio group, which may be substituted or unsubstituted, according to the definitions provided above for substituted or unsubstituted.
This effect correlates with the expected better leaving group ability of the benzoylthio group in the hydrolysis product versus the benzoate group in the comparative compound.

[9] = molecular target: T2, class A β-lactamase KPC-2 (Klebsiella pneumoniae, UniProt Q9F663); experiment: Inhibition of β-lactamases, nitrocefin hydrolysis; type: biochemical; conditions: nitrocefin 100 μM, 10 min pre-incubation
T2 construct: calculated for a mature protein with a 24 amino acid signal peptide removed; made in house; host or cells: Escherichia coli DH5α (pBR322-catI-blaKPC-2)
Procedure: The KPC-2 β-lactamase was purified from Escherichia coli DH5α strain containing the plasmid, pBR322-catI-blaKPC-2, which was kindly provided by Prof. F. van den Akker (Case Western Reserve University). Expression and purification of the enzyme was similar to that reported by Ke et al. (Biochemistry 2007, 46, 5732-5740). A molecular weight of 28,472 Da for the purified KPC-2 was determined by ESI MS. This is in close agreement with that calculated for a mature protein with a 24 amino acid signal peptide removed.
(§6) Assay conditions for IC50 determinations involved enzyme concentrations ranging between 2 and 6 nM. The concentration used for the nitrocefin substrate was 100 μM. Assays with OXA-10 and OXA-45 were conducted at pH 7.0 with 100 mM sodium phosphate buffer containing 25 mM sodium bicarbonate. Assays with KPC-2 and GC1 were performed at pH 7.0 in 50 mM HEPES buffer and assays with IMP-1 and VIM-2 were performed in the same buffer with the addition of 500 mM NaCl and 1 μM ZnSO4. BSA was used with all enzymes (except OXA-10 and KPC-2) at concentrations of 0.5-1.0 μg/mL.
(§7) Inhibitors were pre-incubated for 10 minutes at room temperature with enzyme assay solutions prior to the addition of the nitrocefin. […] Enzymatic activity was determined using the initial rate of increase in absorbance at 482 nm

[10] = molecular target: T3, VIM-2 metallo-β-lactamase (Pseudomonas aeruginosa, UniProt Q9K2N0); experiment: Inhibition of β-lactamases, nitrocefin hydrolysis; type: biochemical; conditions: nitrocefin 100 μM, 10 min pre-incubation; read-out: IC50 VIM-2 (Class B)
T3 construct: made in house; host or cells: Escherichia coli BL21 (DE3) pLysS carrying pNOR2001
Procedure: VIM-2 metallo-β-lactamase was expressed in Escherichia coli BL21 (DE3) pLysS carrying pNOR2001 (a generous gift from P. Nordmann, Université Paris XI, France) and purified as reported by Poirel et al. (Antimicrob. Agents Chemother. 2000, 44, 891-897). The homogeneity and molecular weight of the mature VIM-2 (29.7 kDa) was determined by SDS-PAGE (Laemmli, U. K. Nature 1970, 227, 680-685). Enzyme concentration was determined from the absorbance at 280 nm (εEM=32,000 M^−1 cm^−1).
as §6, §7

[11] = molecular target: class B β-lactamase NDM-1 (Klebsiella pneumoniae, UniProt C7C422); experiment: Inhibition of β-lactamases, nitrocefin hydrolysis; type: biochemical; conditions: 15 μM nitrocefin
[12] = molecular target: T4, IMP-1 metallo-β-lactamase (Serratia marcescens, UniProt P52699); experiment: Inhibition of β-lactamases, nitrocefin hydrolysis; type: biochemical; conditions: nitrocefin 100 μM, 10 min pre-incubation; read-out: IC50 IMP-1 (Class B)
T4 construct: made in house; host or cells: Escherichia coli BL21(DE3) carrying pCIP4
Source text: IMP-1 metallo-β-lactamase was expressed in Esherichia coli BL21(DE3) carrying pCIP4 and purified as reported by Laraki et al. (Antimicrob. Agents Chemother. 1999, 43, 902-906). The homogeneity of the protein was confirmed by SDS-PAGE according to the method of Laemmli (Nature 1970, 227, 680-685). The molecular weight of purified IMP-1, Mr=25,112±0.5 Da, as determined by ESI-MS, was in agreement with that deduced from its amino acid sequence (Laraki et al. Antimicrob. Agents Chemother. 1999, 43, 890-901).
as §6
Inhibitors were pre-incubated for 10 minutes at room temperature with enzyme assay solutions prior to the addition of the nitrocefin. These compounds were dissolved in DMSO and prepared at various concentrations such that the final concentration of DMSO was 1% during the pre-incubation. The reaction was initiated by the addition of the pre-incubated enzyme-cyclobutanone solution (90 μL) to a solution of nitrocefin in buffer (10 μL). Enzymatic activity was determined using the initial rate of increase in absorbance at 482 nm

class C β-lactamase GC1 = molecular target: T5, class C β-lactamase GC1 (Enterobacter cloacae, UniProt Q59401); experiment: Inhibition of β-lactamases, nitrocefin hydrolysis; type: biochemical; conditions: nitrocefin 100 μM, 10 min pre-incubation
T5 construct: made in house; host or cells: Escherichia coli AS226-51 harbouring pCS100
Procedure: GC1 β-lactamase was purified from Escherichia coli AS226-51 harbouring pCS100, which was a generous gift from Prof. M. Nukaga (Josai International University, Japan). The cell culture was harvested and subjected to a stringent periplasmic lysis protocol according to Crichlow et al. (Biochemistry 1999, 38, 10256-10261.). Purification proceeded similarly to Nukaga et al. (J. Biol. Chem. 2004, 279, 9344-9352.) with cation exchange chromatography (CM Sephadex C-50) equilibrated with 10 mM sodium phosphate buffer (pH 6), followed by elution with a stepwise gradient of increasing NaCl concentration. Fractions containing β-lactamase activity were then applied to a phenylboronate column (MoBiTec, Germany), equilibrated with 20 mM triethanolamine.HCl, pH 7.0, 0.5 M NaCl. The column was washed with the same buffer and then eluted with sterile 0.5 M borate buffer, pH 7.0, 0.5 M NaCl. Active fractions eluted from the phenylboronate column were analyzed for purity via SDS-PAGE, pooled, and concentrated before buffer exchange to 100 mM sodium phosphate, pH 7.0.
(§8) Assay conditions for IC50 determinations involved enzyme concentrations ranging between 2 and 6 nM. […]
as §7

[13] = molecular target: T6, class D β-lactamase OXA-10 (Pseudomonas aeruginosa, UniProt P14489); experiment: Inhibition of β-lactamases, nitrocefin hydrolysis; type: biochemical
T6 construct: indicating a post-translational deletion of a 20 amino acid signal peptide; made in house; host or cells: Escherichia coli BL21 (DE3), pET24a-blaOXA-10, purified from culture supernatant
Source text: OXA-10 β-lactamase was expressed and purified using a modified protocol of that reported by Golemi et al. (J. Am. Chem. Soc. 2000, 122, 6132-6133). The pET24a plasmid with the blaOXA-10 gene insert, a kind gift from Prof. S. Mobashery (Notre Dame University), was transformed into Escherichia coli BL21 (DE3) and induced with IPTG. Purification of the enzyme was achieved by the addition of ammonium sulfate to the induced culture supernatant. The protein precipitate collected (50-70% ammonium sulfate saturation) was dissolved and dialyzed against 10 mM Tris.SO4 buffer, pH 7.5, and further purified with a DE52 cellulose column (Whatman, UK) equilibrated with the same buffer. The material bound to the column was washed with 10 mM Tris.SO4 buffer, pH 7.5, followed by an elution with a K2SO4 gradient (0-100 mM). Protein fractions containing nitrocefin-hydrolyzing activity were concentrated and purity analyzed by SDS-PAGE. A molecular weight of 27,490 Da for OXA-10 was determined by ESI MS, indicating a post-translational deletion of a 20 amino acid signal peptide.
as §8, §7

IMP-1 [14] = molecular target: T1, IMP-1; experiment: Inhibition of IMP-1-catalyzed hydrolysis of meropenem in vitro (310 nm); type: biochemical
MBL CfiA = MBL CfiA (Aeromonas hydrophila, UniProt P26918); conditions: cited from earlier work
Chain of MBL CfiA (P26918 28-254): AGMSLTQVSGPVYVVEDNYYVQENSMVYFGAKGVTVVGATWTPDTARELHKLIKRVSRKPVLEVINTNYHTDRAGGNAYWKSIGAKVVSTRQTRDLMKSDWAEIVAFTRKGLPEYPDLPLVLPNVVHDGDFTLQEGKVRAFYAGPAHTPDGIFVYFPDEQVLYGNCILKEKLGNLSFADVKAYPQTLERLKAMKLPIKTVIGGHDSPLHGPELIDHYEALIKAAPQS

T1 sequence (P52699 19-246 limits assumed): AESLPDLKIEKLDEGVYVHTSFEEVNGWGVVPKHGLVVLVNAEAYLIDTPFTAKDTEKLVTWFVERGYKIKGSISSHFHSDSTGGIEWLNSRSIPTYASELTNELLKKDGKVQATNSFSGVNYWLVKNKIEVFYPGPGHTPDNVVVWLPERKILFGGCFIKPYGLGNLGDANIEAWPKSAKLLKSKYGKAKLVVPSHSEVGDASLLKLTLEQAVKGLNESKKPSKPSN
T2 sequence (Q9F663 25-293, looked up): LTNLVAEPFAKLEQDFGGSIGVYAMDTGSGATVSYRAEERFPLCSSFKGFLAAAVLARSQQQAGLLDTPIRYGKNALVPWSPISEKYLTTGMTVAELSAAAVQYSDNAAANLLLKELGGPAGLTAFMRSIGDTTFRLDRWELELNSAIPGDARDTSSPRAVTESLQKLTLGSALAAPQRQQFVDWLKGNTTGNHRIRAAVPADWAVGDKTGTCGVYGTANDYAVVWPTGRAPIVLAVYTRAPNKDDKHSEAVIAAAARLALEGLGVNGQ
T4 sequence (P52699 19-246, looked up): as the sequence (P52699 19-246 limits assumed) above
Chain of class B β-lactamase NDM-1 (C7C422 29-270, looked up): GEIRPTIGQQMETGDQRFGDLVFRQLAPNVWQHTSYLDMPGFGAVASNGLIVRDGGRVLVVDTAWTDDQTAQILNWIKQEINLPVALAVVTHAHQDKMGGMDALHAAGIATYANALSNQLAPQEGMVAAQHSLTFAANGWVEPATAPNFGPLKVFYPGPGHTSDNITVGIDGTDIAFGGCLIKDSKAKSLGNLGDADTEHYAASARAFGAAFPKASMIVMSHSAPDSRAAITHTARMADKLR
T5 sequence (Q59401 entry or part of it): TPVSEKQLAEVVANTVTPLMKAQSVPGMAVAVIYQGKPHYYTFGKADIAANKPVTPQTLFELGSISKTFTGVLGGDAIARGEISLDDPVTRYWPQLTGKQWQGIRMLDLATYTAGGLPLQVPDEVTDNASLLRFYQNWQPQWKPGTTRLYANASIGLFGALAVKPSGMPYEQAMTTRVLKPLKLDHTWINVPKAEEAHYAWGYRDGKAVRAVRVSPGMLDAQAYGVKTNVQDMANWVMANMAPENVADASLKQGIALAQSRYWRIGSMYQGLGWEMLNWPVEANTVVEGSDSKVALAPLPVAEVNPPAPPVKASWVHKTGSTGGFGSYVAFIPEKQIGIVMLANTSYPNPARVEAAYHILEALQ
T6 sequence (P14489 20-266): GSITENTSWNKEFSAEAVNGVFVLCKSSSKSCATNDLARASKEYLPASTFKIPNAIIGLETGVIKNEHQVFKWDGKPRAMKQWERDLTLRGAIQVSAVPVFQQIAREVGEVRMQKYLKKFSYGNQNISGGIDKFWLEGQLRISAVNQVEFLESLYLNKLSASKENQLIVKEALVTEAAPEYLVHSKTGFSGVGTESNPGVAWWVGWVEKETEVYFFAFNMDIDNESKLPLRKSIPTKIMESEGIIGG

O=C(Cc1cccs1)N[C@@H]1C(=O)N2C(C(=O)O)=C(CSC(=O)c3ccccc3)CS[C@H]12 [CMPD A, (6R,7R)-3-(benzoylthiomethyl)-8-oxo-7-(2-(thiophen-2-yl)acetamido)-5-thia-1-azabicyclo[4.2.0]oct-2-ene-2-carboxylic acid]
FIC [1]: 0.1328 | FIC [2]: 0.1289 | effect on sensitivity of IMP-1 to proteolysis by trypsin (IMP-1 [3]): increases the sensitivity of the protein to proteolysis by trypsin | FIC [4]: 0.5625 | FIC [5]: 0.25 | FIC [6]: 0.2539 | FIC [7]: 0.2539 | FIC [8]: 0.625 | β-lactamase inhibition (β-lactamases): good inhibitor

O=C(Cc1ccc(F)cc1)N[C@@H]1C(=O)N2C(C(=O)O)=C(CSC(=O)c3ccccc3)CS[C@H]12 [drawing 28]
IC50 [9]: 104 µM | IC50 [10]: 4.2 µM | IC50 [11]: 40 µM | IC50 [12]: 8.2 µM | IC50 (class C β-lactamase GC1): 11 µM | IC50 [13]: 6.3 µM

CO[C@@]1(NC(=O)C(C(=O)O)c2ccc(O)cc2)C(=O)N2C(C(=O)O)=C(CSc3nnnn3C)CO[C@@H]21 (stereo partly drawn) [moxalactam]
performance as inhibitor (IMP-1 [14]): poor performance | protection of meropenem from IMP-1-catalyzed hydrolysis in vitro (IMP-1 [14]; IMP-1 12 nM, meropenem 200 μM, test substance 100 μM, 310 nm): poor protection | incubation required for full inactivation of CfiA (MBL CfiA): 14 h
